This passage reports percent span inhibition and EC50 results from PubChem BioAssay AID1324 (NMMLSC, 2008).

As a reminder, the pEC50 is −log10 of the EC50, conventionally taken in molar units.

The structures appear in SMILES notation. pEC50: −log10 of the molar value. Calls of active or inactive are those of the source. No rule for the calls is given here.

This experiment has as its target glutathione S-transferase (GST-GSH binding). Kind of experiment: GST–glutathione interaction disruption – biochemical, multiplex beads, flow cytometry, HPSMTB buffer, profiling panel (AID 1324).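 As to all read-outs here: glutathione beads loaded with GST-green fluorescent protein and no fluorescent Bim peptide.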 To be noted: multiplex bead flow cytometry, MCF; for percent span inhibition: stronger effect = higher value, concentration not given here. (In flow cytometry, cells or beads pass a laser one at a time.)

As for `CCc1cccc(NC(=O)COc2ccccc2)c1`, the percent span inhibition entry is “inactive”. As to `CCOc1ncccc1C(=O)OC(C)C(=O)Nc1ccc(CC)cc1` (configuration not stated), the percent span inhibition result was “inactive”. On to `COc1cc2[nH]c(=S)nc(NCC3CCCO3)c2cc1OC` (configuration not stated), for which the EC50 result was “inactive”. Turning to `Nc1c(C(=O)NCC2CCCO2)sc2nc3c(c(-c4ccco4)c12)CC/C3=C\c1ccco1` (configuration not stated), the percent span inhibition entry was “inactive”. Consider `Cc1nnc(Sc2cc(NCCCO)c([N+](=O)[O-])c3nonc23)s1`, for which the percent span inhibition result is “inactive”.

In the case of `COc1cccc(/C=N/Nc2nn3cnnc3c3ccccc23)c1`, the negative logarithm of the EC50 (pEC50) was 5.14. Turning to `C/C(=C\c1ccco1)C1Nc2cccc3cccc(c23)N1`, the percent span inhibition entry is “inactive”. On to `COC(=O)CSc1ncnc2c1sc1nc(-c3ccco3)c3c(c12)CC(C)(C)OC3`, for which the percent span inhibition result was “inactive”. Regarding `Cc1ccc(NC(=S)N2CCn3cccc3C2c2cccnc2)cc1` (configuration not stated), the percent span inhibition entry is “inactive”.

For the molecule `Cc1c(Cc2ccccc2)sc(N)c1C(N)=O`, the percent span inhibition entry was “inactive”. Turning to `COc1cc(OC)c([N+](=O)[O-])cc1/C=N/NC(=O)c1ccncc1`, the EC50 entry was “inactive”. Turning to `Cc1ccc(-c2nc3c(c(=O)[nH]c(=O)n3Cc3ccccc3)n2Cc2ccccc2)o1`, the percent span inhibition result is “inactive”. The same measure, in the same setting: in the case of `Cc1ccc(-c2cc(C(=O)Nc3ccccc3C)c3ccccc3n2)o1` it was “inactive”. Regarding `CCOc1ccccc1NC(=O)CSc1ccc2nnc(-c3cccnc3)n2n1`, the percent span inhibition entry is “inactive”. The same measure, in the same setting: with `CC(=O)Nc1ccc(NC2=C(Cl)C(=O)c3ccccc3C2=O)cc1` the entry was “inactive”. Consider `O=C1C=C(Nc2ccccc2)C(=O)c2ccccc21`, for which the percent span inhibition entry is “inactive”. Still for that read-out and setting: in the case of `COc1ccc(S(=O)(=O)NCCSc2ccc(Cl)cc2)cc1OC` it was “inactive”. `O=C(O)CC/C(=C\c1cc([N+](=O)[O-])ccc1Cl)c1nc2ccccc2s1`: the percent span inhibition result is “inactive”. Still for that read-out and setting: in the case of `O=C(O)C1=C[C@H](C2CC2)C[C@H](OCCCCO)O1` it was “inactive”. With `COc1ccccc1Oc1ccc2c(c1)C(=O)N(c1cccc3ncccc13)C2=O`, the percent span inhibition entry was “inactive”. Still for that read-out and setting: in the case of `Cc1ccnc(NS(=O)(=O)c2ccc(NC(=O)c3c(-c4ccccc4Cl)noc3C)cc2)n1` it was “inactive”; in that of `Cc1cccc(N2C(S)=C(C#N)C(=O)NC2c2cccs2)c1` (configuration not stated), “inactive”; in that of `COc1cccc(/C=N/NC(=O)c2cc3cc([N+](=O)[O-])ccc3s2)c1O`, “inactive”. Take `CC(=O)Nc1ccc2nc(CN3CCN(CC(C)C)C(CCO)C3)ccc2c1` (configuration not stated): the percent span inhibition result was “inactive”.

For `Oc1ccc(NCc2ccccc2OCc2ccccc2)cc1`, the percent span inhibition entry was “inactive”. The same measure, in the same setting: in the case of `COc1ccc(/C=C/C(=O)Nc2sc(Cc3ccccc3)c(C)c2C(N)=O)cc1` it was “inactive”; in that of `CSc1nnc2c3cc(C)ccc3n(Cc3ccccc3)c2n1`, “inactive”. For `Cc1ccc(-c2cc(-c3ccc4c(c3)OCO4)c(C#N)c(N)n2)o1`, the percent span inhibition entry was “inactive”.

As for `Cc1cc(Cl)ccc1N=c1ssnc1Cl`, the percent span inhibition entry was “inactive”.

In the case of `CN1N=C(C(=O)N2CCCC(C(=O)c3cccc(C(F)(F)F)c3)C2)CCC1=O` (configuration not stated), the percent span inhibition result is “inactive”. With `COc1ccccc1Nc1nc(-c2c(C)nc3ncccn23)cs1`, the EC50 result is “inactive”. `CCOc1ccc(CNc2ccc(N3CCCC3)cc2)cc1`: the percent span inhibition result is “inactive”.

As to `COCCCn1c(N)c(C(=O)Nc2sc3c(c2C(=O)OC)CCCC3)c2nc3ccccc3nc21`, the pEC50 is 5.59. Consider `Cc1ccc(N=Cc2c(O)n(-c3ccc4c(c3)OCO4)c(=O)c3ccccc23)cc1`, for which the percent span inhibition result was “inactive”. Same read-out and setting: with `COc1ccc(N2C(=O)C(Cl)=C(Oc3cccc(OC)c3)C2=O)cc1` the entry was “inactive”; with `COC(=O)c1c(C(=O)OC)c2cccc3cc(-c4ccccc4)c4ccc1c4n32`, “inactive”. On the same count and under the same terms, with `COc1ccc(C(=O)NC(=S)N2CCNC(=O)C2)cc1Br` the entry was “inactive”. `Nc1ccc(-c2cn3cccnc3n2)cc1`: the percent span inhibition entry was “inactive”. `COc1ccc2nc(-c3ccco3)c(-c3ccco3)nc2c1`: the EC50 result is “inactive”. On to `Cc1csc(Nc2ccccc2C(F)(F)F)n1`, for which the percent span inhibition result was “inactive”.

For `OC(COc1ccc2ccccc2c1)CN1CCCC1` (configuration not stated), the percent span inhibition entry was “inactive”. As for `COc1ccc(/C=C2\SC(=O)NC2=S)cc1OC`, the percent span inhibition entry was “inactive”. With `C=CCn1c(C)c(C(C)=O)c(N2CCOCC2)nc1=S`, the percent span inhibition result was “inactive”. On the same count and under the same terms, with `CCN(CC)c1ccc(NC(=O)c2ccc(=O)[nH]c2)cc1S(=O)(=O)Nc1ccccc1OC` the entry was “inactive”; with `CCC(/C=C1\Sc2ccc(OC)cc2N1CCO)=C\c1sc2ccc(OC)cc2[n+]1CCO`, “inactive”.

`Clc1nssc1=Nc1ccc(Br)cc1`: the percent span inhibition result is “inactive”. The same measure, in the same setting: with `BrC(=C\c1ccccc1)/C=N/N1CCN(c2ccccc2)CC1` the entry was “inactive”. Still for that read-out and setting: with `O=C(CC1NCCNC1=O)Nc1cccc([N+](=O)[O-])c1` (configuration not stated) the entry was “inactive”; with `CCOc1ccc(C2=Nn3c(nnc3-c3ccco3)SC2)cc1`, “inactive”.

`Cc1ccc(OCc2cn3cccnc3n2)cc1`: the percent span inhibition entry was “inactive”. The same measure, in the same setting: with `CCOC(=O)CSC1=NC(=O)/C(=C\c2ccc(OC(C)=O)cc2)S1` the entry was “inactive”; with `Cc1ccc(OCC(=O)NCc2ccccn2)c(Br)c1`, “inactive”.

As for `COCCCNc1nc(=S)[nH]c2cc(OC)c(OC)cc12`, the pEC50 was 5.27. For `CCCC1(C(=O)OCC)NC(c2cc(OC)c(OC)c(OC)c2)C2C(=O)N(CC)C(=O)C21` (configuration not stated), the percent span inhibition result is “inactive”. The same measure, in the same setting: with `CN1C2C=C3C(C#N)=C(N)C(C#N)(C#N)[C@@H](c4ccsc4)[C@@H]3C1CC2` (some centres not stated) the entry was “inactive”. In the case of `COc1cc(N=c2ssnc2Cl)cc(OC)c1OC`, the percent span inhibition result was “inactive”. As to `O=C(O)CC1S/C(=N/N=C/C=C/c2ccccc2[N+](=O)[O-])NC1=O` (configuration not stated), the percent span inhibition result is “inactive”.

As to `CN(C)[C@@H]1C(=O)C(C(=O)NCN2CCCC2)=C(O)[C@@]2(O)C(=O)C3=C(O)c4c(O)cccc4[C@@](C)(O)C3CC12` (some centres not stated), the EC50 result is “inactive”. Consider `CN(/N=C/C=C/c1ccccc1)C1=NS(=O)(=O)c2ccccc21`, for which the negative-log EC50 (pEC50) is 5.60. `S=C(Nc1ccc(N2CCOCC2)cc1)Nc1ccc2nc(-c3ccco3)c(-c3ccco3)nc2c1`: the percent span inhibition result was “inactive”. With `COc1ccc(Cc2c(O)nc(SC)n(C(C)=O)c2=O)cc1`, the percent span inhibition result is “inactive”. Regarding `Clc1ccc2c(N/N=C/c3ccc(Br)cc3)ccnc2c1`, the percent span inhibition result is “inactive”. Still for that read-out and setting: with `O=C(Nc1ccncc1)c1cc2ccccc2o1` the entry was “inactive”; with `Cc1ccc(/C=C2\CCCC3=C2NC(=S)NC3c2ccc(C)cc2)cc1` (configuration not stated), “inactive”. As to `CCCCOc1ccc(Cc2c(Cl)nc(SC)nc2N2CCOCC2)cc1`, the percent span inhibition entry was “inactive”. For the molecule `CC1(C(=O)N(CC(=O)NC2CCCC2)Cc2ccco2)CC(=O)N=C2C=CC=CN21` (configuration not stated), the percent span inhibition entry is “inactive”.

In the case of `Cc1cccc(-c2nnc3n2N=C(c2ccccc2)CS3)c1`, the percent span inhibition entry was “inactive”. Same read-out and setting: with `COc1cc(NC(=S)NC(=O)c2cc(C)cc(C)c2)ccc1NC(=O)c1cccs1` the entry was “inactive”. Same read-out and setting: with `C#CCOCCOCCOCCNc1nc(N2CCN(C(=O)[C@H]([C@@H](C)CC)n3cc([C@@H](N)CC(C)C)nn3)CC2)nc(N2CCN(C(=O)[C@H](Cc3cc4ccccc4[nH]3)n3cc([C@@H](N)Cc4ccc(O)cc4)nn3)CC2)n1` the entry was “inactive”. In the case of `COc1ccc(OC)c(-n2c(=O)c3ccccc3c3ccccc3c2=O)c1`, the EC50 result was “inactive”. Consider `Cc1nc2ncccn2c1-c1csc(Nc2ccccc2)n1`, for which the percent span inhibition result is “inactive”. Take `COc1cc(/C=C2/NC(=O)N(Cc3ccccc3F)C2=O)ccc1O`: the percent span inhibition result was “inactive”.

For `N=C1C(c2nc3ccccc3s2)=C(O)CN1Cc1ccccc1`, the percent span inhibition result is “inactive”. Same read-out and setting: in the case of `COc1cc(/C=N/NC(=O)CN(Cc2ccco2)S(=O)(=O)c2ccccc2)ccc1O` it was “inactive”; in that of `CCN(CC)c1ccc(NC(=O)c2ccccc2F)cc1S(=O)(=O)Nc1ccccc1OC`, “inactive”.

As for `COc1cc2nc(=S)n(CCCN3CCOCC3)c(N)c2cc1OC`, the percent span inhibition result was “inactive”. Still for that read-out and setting: with `O=C1/C(=C/c2cccs2)Sc2ccccc21` the entry was “inactive”; with `Cc1cccc(-n2c(O)c(/C=N/N3CCOCC3)c(=O)[nH]c2=S)c1`, “inactive”.

Consider `Cc1ccc(/C=C/C(=O)Nc2ccc([N+](=O)[O-])c(NC(=O)/C=C/c3ccc(C)o3)c2)o1`, for which the percent span inhibition entry is “inactive”. Same read-out and setting: with `O=C1C(Cl)=C(N2CCN(c3ccccc3[N+](=O)[O-])CC2)C(=O)c2ccccc21` the entry was “inactive”; with `O=C(C[n+]1ccc(-c2nnc3n2CCC3)cc1)c1ccc(Cl)c(Cl)c1`, “inactive”; with `COC(=O)Cc1cc(=O)[nH]c(Nc2nc3ccccc3o2)n1`, “inactive”.

Take `Cn1c(CCNC(=O)C2CCCCC2)nc2cc(NC(=O)c3cccs3)ccc21`: the percent span inhibition result was “inactive”.

Turning to `COc1cc2[nH]c(=S)nc(NCCCOC(C)C)c2cc1OC`, the percent span inhibition entry is “inactive”. The same measure, in the same setting: in the case of `Cc1nn(-c2ccc(Cl)c(Cl)c2)c(C)c1C(=O)O` it was “inactive”; in that of `O=C(OCc1nc2ccccc2[nH]1)C12CC3CC(CC(C3)C1)C2`, “inactive”. On the same count and under the same terms, with `Cc1cc(-c2nnc(CCC(=O)NC(C)c3cccc4ccccc34)o2)no1` (configuration not stated) the entry was “inactive”.
